Experiments:
[1] = Evaluation of stability on excipient compatibility, compound C (Experimental Example 11); format: physicochemical; conditions: 60° C., 75% RH, 2 weeks
Description: Evaluation of Stability on Excipient Compatibility
Compound C was physically mixed in various additives shown in Table 48 in a mortar (see Table 48 for mixing ratio), and the obtained mixed powder was placed in a glass sample bottle in a layer thickness of about 5 mm.
The glass sample bottle was placed in a desiccator humidity-conditioned to 75% RH (relative humidity) without capping, and the desiccator containing the bottle was preserved for 2 weeks in a constant-temperature equipment set to 60° C.
After the completion of the preservation, a 60 v/v % aqueous acetonitrile solution was added to a concentration of compound C of 0.5 mg/mL, and the mixture was subjected to a dissolution treatment by ultrasonication and a filtration treatment. Each sample was measured by high performance liquid chromatography, and the stability was evaluated based on the changes from the start of preservation.

[2] = Guideline for the management of hyperuricemia and gout (1st Edit.); cited from earlier work

| stability when compounded with an additive ([1]; compounded with an additive other than calcium silicate) | Compound | HPLC peak of decomposition product ([1]; when calcium silicate is added) | dissolution concentration of uric acid in plasma [2] |
| --- | --- | --- | --- |
| good stability | O=C(c1cc(Cl)c(O)c(Cl)c1)N1CCOc2ccccc21 [Reference Example 3, (3,5-dichloro-4-hydroxyphenyl)-(2,3-dihydrobenzo[1,4]oxazin-4-yl)-methanone] | novel peak considered to derive from the decomposition product of compound C | – |
| – | O=c1[nH]c(=O)c2[nH]c(=O)[nH]c2[nH]1 [uric acid] | – | 7 mg/dL |

— patent US20080305169A1, “Pharmaceutical Compositions Comprising Nitrogen-Containing Fused Ring Coumpounds” (Japan Tobacco Inc., priority 2006, published 2008)
